# Measurements as given in PubChem BioAssay (NCI).
#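 96-well plates; 48 h exposure; 5 concentrations. Endpoints by linear interpolation between flanking doses. Not reached: highest tested concentration assigned. Definition used: TGI = concentration required for complete inhibition of growth.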
# Columns and labels:
# Experiment in all cases: growth of human tumour cells (NCI), 48 h
# [1] = test system: 786-0 renal
# [2] = test system: A498 renal
# [3] = test system: A549 NSCLC
# [4] = test system: ACHN renal
# [5] = test system: BT-549 breast
# [6] = test system: CAKI-1 renal
# [7] = test system: CCRF-CEM leukemia
# [8] = test system: COLO 205 colon
# [9] = test system: DU-145 prostate
# [10] = test system: EKVX NSCLC
# [11] = test system: HCC-2998 colon
# [12] = test system: HCT-116 colon
# [13] = test system: HCT-15 colon
# [14] = test system: HL-60(TB) leukemia
# [15] = test system: HOP-62 NSCLC
# [16] = test system: HOP-92 NSCLC
# [17] = test system: HS 578T breast
# [18] = test system: HT29 colon
# [19] = test system: IGROV1 ovarian
# [20] = test system: K-562 leukemia
# [21] = test system: KM12 colon
# [22] = test system: LOX IMVI melanoma
# [23] = test system: M14 melanoma
# [24] = test system: MALME-3M melanoma
# [25] = test system: MCF7 breast
# [26] = test system: MDA-MB-231 breast
# [27] = test system: MDA-MB-435
# [28] = test system: MDA-N
# [29] = test system: MOLT-4 leukemia
# [30] = test system: NCI-H226 lung
# [31] = test system: NCI-H23 lung
# [32] = test system: NCI-H460 lung
# [33] = test system: NCI-H522 lung
# [34] = test system: NCI/ADR-RES ovarian
# [35] = test system: OVCAR-3 ovarian
# [36] = test system: OVCAR-4 ovarian
# [37] = test system: OVCAR-5 ovarian
# [38] = test system: OVCAR-8 ovarian
# [39] = test system: PC-3 prostate
# [40] = test system: RPMI-8226 leukemia
# [41] = test system: RXF 393 renal
# [42] = test system: SF-268 CNS
# [43] = test system: SF-295 CNS
# [44] = test system: SF-539 CNS
# [45] = test system: SK-MEL-2 melanoma
# [46] = test system: SK-MEL-28 melanoma
# [47] = test system: SK-MEL-5 melanoma
# [48] = test system: SK-OV-3 ovarian
# [49] = test system: SN12C renal
# [50] = test system: SNB-19 CNS
# [51] = test system: SNB-75 CNS
# [52] = test system: SR leukemia
# [53] = test system: SW-620 colon
# [54] = test system: T-47D breast
# [55] = test system: TK-10 renal
# [56] = test system: U251 CNS
# [57] = test system: UACC-257 melanoma
# [58] = test system: UACC-62 melanoma
# [59] = test system: UO-31 renal
compound,measurement,setting,value
O=P(O)(CCP(=O)(O)c1ccccc1)c1ccccc1,TGI,[1],> 100 µM
same,TGI,[2],> 100 µM
same,TGI,[3],> 100 µM
same,TGI,[4],> 100 µM
same,TGI,[5],> 100 µM
same,TGI,[6],> 100 µM
same,TGI,[7],> 100 µM
same,TGI,[8],> 100 µM
same,TGI,[9],> 100 µM
same,TGI,[10],> 100 µM
same,TGI,[11],> 100 µM
same,TGI,[12],> 100 µM
same,TGI,[13],> 100 µM
same,TGI,[14],> 100 µM
same,TGI,[15],> 100 µM
same,TGI,[16],> 100 µM
same,TGI,[17],> 100 µM
same,TGI,[18],> 100 µM
same,TGI,[19],> 100 µM
same,TGI,[20],> 100 µM
same,TGI,[21],> 100 µM
same,TGI,[22],> 100 µM
same,TGI,[23],> 100 µM
same,TGI,[24],> 100 µM
same,TGI,[25],> 100 µM
same,TGI,[26],> 100 µM
same,TGI,[27],> 100 µM
same,TGI,[28],> 100 µM
same,TGI,[29],> 100 µM
same,TGI,[30],> 100 µM
same,TGI,[31],> 100 µM
same,TGI,[32],> 100 µM
same,TGI,[33],> 100 µM
same,TGI,[34],> 100 µM
same,TGI,[35],> 100 µM
same,TGI,[36],> 100 µM
same,TGI,[37],> 100 µM
same,TGI,[38],> 100 µM
same,TGI,[39],> 100 µM
same,TGI,[40],> 100 µM
same,TGI,[41],> 100 µM
same,TGI,[42],> 100 µM
same,TGI,[43],> 100 µM
same,TGI,[44],> 100 µM
same,TGI,[45],> 100 µM
same,TGI,[46],> 100 µM
same,TGI,[47],> 100 µM
same,TGI,[48],> 100 µM
same,TGI,[49],> 100 µM
same,TGI,[50],> 100 µM
same,TGI,[51],> 100 µM
same,TGI,[52],> 100 µM
same,TGI,[53],> 100 µM
same,TGI,[54],> 100 µM
same,TGI,[55],> 100 µM
same,TGI,[56],> 100 µM
same,TGI,[57],> 100 µM
same,TGI,[58],> 100 µM
same,TGI,[59],> 100 µM
Cc1ccc(N=Nc2c(C)nn(C(=O)CC(=O)Nc3ccccc3)c2C)cc1C,TGI,[1],> 100 µM
same,TGI,[2],> 100 µM
same,TGI,[3],> 100 µM
same,TGI,[4],> 100 µM
same,TGI,[5],> 100 µM
same,TGI,[6],> 100 µM
same,TGI,[7],> 100 µM
same,TGI,[8],> 100 µM
same,TGI,[9],> 100 µM
same,TGI,[10],> 100 µM
same,TGI,[11],> 100 µM
same,TGI,[12],> 100 µM
same,TGI,[13],> 100 µM
same,TGI,[14],> 100 µM
same,TGI,[15],> 100 µM
same,TGI,[16],> 100 µM
same,TGI,[17],> 100 µM
same,TGI,[18],> 100 µM
same,TGI,[19],> 100 µM
same,TGI,[21],> 100 µM
same,TGI,[22],> 100 µM
same,TGI,[23],> 100 µM
same,TGI,[24],> 100 µM
same,TGI,[25],> 100 µM
same,TGI,[26],> 100 µM
same,TGI,[27],> 100 µM
same,TGI,[28],> 100 µM
same,TGI,[29],> 100 µM
same,TGI,[30],> 100 µM
same,TGI,[31],> 100 µM
same,TGI,[32],> 100 µM
same,TGI,[33],> 100 µM
same,TGI,[34],> 100 µM
same,TGI,[35],> 100 µM
same,TGI,[36],> 100 µM
same,TGI,[37],> 100 µM
same,TGI,[38],> 100 µM
same,TGI,[39],> 100 µM
same,TGI,[40],> 100 µM
same,TGI,[41],> 100 µM
same,TGI,[42],> 100 µM
same,TGI,[43],> 100 µM
same,TGI,[44],> 100 µM
same,TGI,[45],> 100 µM
same,TGI,[46],> 100 µM
same,TGI,[47],> 100 µM
same,TGI,[48],> 100 µM
same,TGI,[49],> 100 µM
same,TGI,[51],> 100 µM
same,TGI,[52],> 100 µM
same,TGI,[53],> 100 µM
same,TGI,[54],> 100 µM
same,TGI,[55],> 100 µM
same,TGI,[56],> 100 µM
same,TGI,[58],> 100 µM
same,TGI,[59],> 100 µM
COc1cc2c(cc1C[N+](C)(C)CSc1ccccc1)-c1ccccc1CC2,TGI,[1],19.6 µM
same,TGI,[2],37.9 µM
same,TGI,[3],45.8 µM
same,TGI,[4],28.6 µM
same,TGI,[5],15.5 µM
same,TGI,[6],26.4 µM
same,TGI,[7],14.3 µM
same,TGI,[8],5.73 µM
same,TGI,[9],21.2 µM
same,TGI,[10],23.7 µM
same,TGI,[11],13.6 µM
same,TGI,[12],13.1 µM
same,TGI,[13],30.2 µM
same,TGI,[14],2.46 µM
same,TGI,[15],27.1 µM
same,TGI,[16],26.2 µM
same,TGI,[17],19.3 µM
same,TGI,[18],13.1 µM
same,TGI,[19],12.5 µM
same,TGI,[20],6.75 µM
same,TGI,[21],6.92 µM
same,TGI,[22],14.6 µM
same,TGI,[23],7.95 µM
same,TGI,[24],6.23 µM
same,TGI,[25],16.4 µM
same,TGI,[26],10 µM
same,TGI,[27],12.5 µM
same,TGI,[28],5.48 µM
same,TGI,[29],9.59 µM
same,TGI,[30],23.6 µM
same,TGI,[31],14.4 µM
same,TGI,[32],9.43 µM
same,TGI,[33],10.7 µM
same,TGI,[34],> 100 µM
same,TGI,[35],13 µM
same,TGI,[36],18.9 µM
same,TGI,[37],24.3 µM
same,TGI,[38],14.6 µM
same,TGI,[39],11 µM
same,TGI,[40],17.2 µM
same,TGI,[41],23.1 µM
same,TGI,[42],18.5 µM
same,TGI,[43],25.5 µM
same,TGI,[44],20.6 µM
same,TGI,[45],5.21 µM
same,TGI,[46],> 35.1 µM
same,TGI,[47],2.39 µM
same,TGI,[48],26.1 µM
same,TGI,[49],19.2 µM
same,TGI,[50],10.7 µM
same,TGI,[51],6.17 µM
same,TGI,[52],7.55 µM
same,TGI,[53],> 41.3 µM
same,TGI,[54],16.2 µM
same,TGI,[55],23.1 µM
same,TGI,[56],27.8 µM
same,TGI,[57],12.3 µM
same,TGI,[58],7.79 µM
same,TGI,[59],28.6 µM
